Test system: 996289-038-R-J1-PDC complex spheroid viability
Experiment: Anticancer human tumor 996289-038-R-J1-PDC patient-derived colon adenocarcinoma cell line growth inhibition [CLK]
Details: for IC50: curve of first compound; for viability, T/C: stronger effect = lower value; active means viability on the fitted dose curve at most 10% of control; inactive means the rest
Procedure, shortened: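 Patient-derived tumor cells grown as complex spheroids with HUVEC endothelial cells and mesenchymal stem cells, treated with drug combinations. Concentrations descend in half-log steps from near clinical Cmax, or from 10 microM if Cmax unknown.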

[1] = second compound 0.0316 µM, first compound 0.0316 µM
[2] = second compound 0.0316 µM, first compound 0.1 µM
[3] = second compound 0.0316 µM, first compound 0.316 µM
[4] = second compound 0.0316 µM, first compound 1 µM
[5] = second compound 0.0316 µM, first compound 3.16 µM
[6] = second compound 0.0316 µM, first compound 10 µM
[7] = second compound 0.1 µM, first compound 0.0316 µM
[8] = second compound 0.1 µM, first compound 0.1 µM
[9] = second compound 0.1 µM, first compound 0.316 µM
[10] = second compound 0.1 µM, first compound 1 µM
[11] = second compound 0.1 µM, first compound 3.16 µM
[12] = second compound 0.1 µM, first compound 10 µM
[13] = second compound 0.316 µM, first compound 0.0316 µM
[14] = second compound 0.316 µM, first compound 0.1 µM
[15] = second compound 0.316 µM, first compound 0.316 µM
[16] = second compound 0.316 µM, first compound 1 µM
[17] = second compound 0.316 µM, first compound 3.16 µM
[18] = second compound 0.316 µM, first compound 10 µM
[19] = second compound 1 µM, first compound 0.0316 µM
[20] = second compound 1 µM, first compound 0.1 µM
[21] = second compound 1 µM, first compound 0.316 µM
[22] = second compound 1 µM, first compound 1 µM
[23] = second compound 1 µM, first compound 3.16 µM
[24] = second compound 1 µM, first compound 10 µM
[25] = second compound 3.16 µM, first compound 0.0316 µM
[26] = second compound 3.16 µM, first compound 0.1 µM
[27] = second compound 3.16 µM, first compound 0.316 µM
[28] = second compound 3.16 µM, first compound 1 µM
[29] = second compound 3.16 µM, first compound 3.16 µM
[30] = second compound 3.16 µM, first compound 10 µM
[31] = second compound 10 µM, first compound 0.0316 µM
[32] = second compound 10 µM, first compound 0.1 µM
[33] = second compound 10 µM, first compound 0.316 µM
[34] = second compound 10 µM, first compound 1 µM
[35] = second compound 10 µM, first compound 3.16 µM
[36] = second compound 10 µM, first compound 10 µM
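Further: spheroids exposed to the agents for 7 days before readout.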

C#Cc1c(F)ccc2cc(O)cc(-c3ncc4c(N5CC6CCC(C5)N6)nc(OCC56CCCN5CC(F)C6)nc4c3F)c12 (stereo not given) + CNC(=O)c1ccc(Nc2nc(OC3CCCC3)c3c(-c4ccc5nc(C)oc5c4)c[nH]c3n2)c(OC)c1
inactive: viability, T/C [1] 107% | viability, T/C [2] 93.2% | viability, T/C [3] 71% | viability, T/C [4] 62.4% | viability, T/C [5] 40% | viability, T/C [6] 29.3% | viability, T/C [7] 106% | viability, T/C [8] 77.1% | viability, T/C [9] 55.9% | viability, T/C [10] 42.4% | viability, T/C [11] 32.2% | viability, T/C [12] 30.5% | viability, T/C [13] 60.7% | viability, T/C [14] 50.4% | viability, T/C [15] 35.6% | viability, T/C [16] 28.3% | viability, T/C [17] 25.5% | viability, T/C [18] 22.4% | viability, T/C [19] 33.8% | viability, T/C [20] 26.5% | viability, T/C [21] 25.4% | viability, T/C [22] 21.5% | viability, T/C [23] 22.1% | viability, T/C [24] 20.6% | viability, T/C [25] 28.3% | viability, T/C [26] 24.3% | viability, T/C [27] 24.5% | viability, T/C [28] 21.4% | viability, T/C [29] 22.9% | viability, T/C [30] 17.8% | viability, T/C [31] 28.7% | viability, T/C [32] 23.1% | viability, T/C [33] 20.2% | viability, T/C [34] 22.3% | viability, T/C [35] 22.8% | viability, T/C [36] 17.9%
1.82 µM: IC50 (second compound 0.0316 µM)
0.0991 µM: IC50 (second compound 0.316 µM)
0.503 µM: IC50 (second compound 0.1 µM)
< 0.0316 µM: IC50 (second compound 1 µM) | IC50 (second compound 3.16 µM) | IC50 (second compound 10 µM)

C=C(F)C(=O)N1CCN(c2nc(OCC3CCCN3C)nc3c2CCN(c2cccc4cccc(Cl)c24)C3)CC1CC#N (stereo not given) + CNC(=O)c1ccc(Nc2nc(OC3CCCC3)c3c(-c4ccc5nc(C)oc5c4)c[nH]c3n2)c(OC)c1
5.2 µM: IC50 (second compound 0.0316 µM)
2.28 µM: IC50 (second compound 1 µM)
1.4 µM: IC50 (second compound 10 µM)
active: viability, T/C [6] 1.33% | viability, T/C [12] 1% | viability, T/C [18] 2.02% | viability, T/C [24] 0.61% | viability, T/C [30] 1.01% | viability, T/C [36] 0.31%
3.79 µM: IC50 (second compound 0.316 µM)
inactive: viability, T/C [1] 127% | viability, T/C [2] 129% | viability, T/C [3] 116% | viability, T/C [4] 121% | viability, T/C [5] 86.7% | viability, T/C [7] 116% | viability, T/C [8] 115% | viability, T/C [9] 106% | viability, T/C [10] 107% | viability, T/C [11] 77.9% | viability, T/C [13] 75.2% | viability, T/C [14] 72.2% | viability, T/C [15] 72.6% | viability, T/C [16] 75.7% | viability, T/C [17] 57.4% | viability, T/C [19] 62.9% | viability, T/C [20] 62.9% | viability, T/C [21] 59.9% | viability, T/C [22] 64.7% | viability, T/C [23] 45.1% | viability, T/C [25] 59.8% | viability, T/C [26] 59.4% | viability, T/C [27] 56.5% | viability, T/C [28] 56.8% | viability, T/C [29] 38.2% | viability, T/C [31] 61.9% | viability, T/C [32] 59% | viability, T/C [33] 56.2% | viability, T/C [34] 57.2% | viability, T/C [35] 33.5%
1.5 µM: IC50 (second compound 3.16 µM)
4.82 µM: IC50 (second compound 0.1 µM)

C=CC(=O)N1CCN(c2nc(=O)n(-c3c(C)ccnc3C(C)C)c3nc(-c4c(O)cccc4F)c(F)cc23)C(C)C1 (stereo not given) + CNC(=O)c1ccc(Nc2nc(OC3CCCC3)c3c(-c4ccc5nc(C)oc5c4)c[nH]c3n2)c(OC)c1
inactive: viability, T/C [1] 110% | viability, T/C [2] 105% | viability, T/C [3] 109% | viability, T/C [4] 121% | viability, T/C [5] 126% | viability, T/C [6] 121% | viability, T/C [7] 124% | viability, T/C [8] 109% | viability, T/C [9] 121% | viability, T/C [10] 112% | viability, T/C [11] 137% | viability, T/C [12] 123% | viability, T/C [13] 81% | viability, T/C [14] 76.5% | viability, T/C [15] 76.5% | viability, T/C [16] 89.1% | viability, T/C [17] 88.9% | viability, T/C [18] 82% | viability, T/C [19] 68.7% | viability, T/C [20] 63.5% | viability, T/C [21] 66.8% | viability, T/C [22] 68.3% | viability, T/C [23] 74.1% | viability, T/C [24] 68.7% | viability, T/C [25] 57.1% | viability, T/C [26] 59.5% | viability, T/C [27] 59% | viability, T/C [28] 61.7% | viability, T/C [29] 70.3% | viability, T/C [30] 59.2% | viability, T/C [31] 58.7% | viability, T/C [32] 59.9% | viability, T/C [33] 58% | viability, T/C [34] 64.9% | viability, T/C [35] 70.5% | viability, T/C [36] 56.8%
> 10 µM: IC50 (second compound 0.0316 µM) | IC50 (second compound 0.1 µM) | IC50 (second compound 0.316 µM) | IC50 (second compound 1 µM) | IC50 (second compound 3.16 µM) | IC50 (second compound 10 µM)

CC(CO)NC(=O)c1cc(-c2ccc(Cl)cc2)nn(-c2cnn(C)c2)c1=O (stereo not given) + CNC(=O)c1ccc(Nc2nc(OC3CCCC3)c3c(-c4ccc5nc(C)oc5c4)c[nH]c3n2)c(OC)c1
inactive: viability, T/C [1] 117% | viability, T/C [2] 111% | viability, T/C [3] 108% | viability, T/C [4] 117% | viability, T/C [5] 109% | viability, T/C [6] 99.6% | viability, T/C [7] 131% | viability, T/C [8] 113% | viability, T/C [9] 116% | viability, T/C [10] 95.4% | viability, T/C [11] 101% | viability, T/C [12] 83.7% | viability, T/C [13] 79.8% | viability, T/C [14] 76.9% | viability, T/C [15] 73.2% | viability, T/C [16] 71.4% | viability, T/C [17] 72.7% | viability, T/C [18] 68.9% | viability, T/C [19] 64.2% | viability, T/C [20] 63.7% | viability, T/C [21] 57.8% | viability, T/C [22] 57.5% | viability, T/C [23] 57.5% | viability, T/C [24] 49% | viability, T/C [25] 58.2% | viability, T/C [26] 57.6% | viability, T/C [27] 55.3% | viability, T/C [28] 54.7% | viability, T/C [29] 56.9% | viability, T/C [30] 48.3% | viability, T/C [31] 52.4% | viability, T/C [32] 56.9% | viability, T/C [33] 56.2% | viability, T/C [34] 58.5% | viability, T/C [35] 55.5% | viability, T/C [36] 44.8%
> 10 µM: IC50 (second compound 0.0316 µM) | IC50 (second compound 0.1 µM) | IC50 (second compound 0.316 µM) | IC50 (second compound 1 µM) | IC50 (second compound 3.16 µM) | IC50 (second compound 10 µM)

COC1C=CCC(C)C(C)S(=O)(=O)NC(=O)c2ccc3c(c2)N(CC2CCC21)CC1(CCCc2cc(Cl)ccc21)CO3 (stereo not given) + CNC(=O)c1ccc(Nc2nc(OC3CCCC3)c3c(-c4ccc5nc(C)oc5c4)c[nH]c3n2)c(OC)c1
6.73 µM: IC50 (second compound 0.1 µM)
2.94 µM: IC50 (second compound 0.316 µM)
0.519 µM: IC50 (second compound 10 µM)
1.18 µM: IC50 (second compound 1 µM)
0.466 µM: IC50 (second compound 3.16 µM)
6.74 µM: IC50 (second compound 0.0316 µM)
inactive: viability, T/C [1] 131% | viability, T/C [2] 119% | viability, T/C [3] 109% | viability, T/C [4] 92.1% | viability, T/C [5] 74.6% | viability, T/C [6] 37.2% | viability, T/C [7] 124% | viability, T/C [8] 117% | viability, T/C [9] 109% | viability, T/C [10] 85.9% | viability, T/C [11] 72.2% | viability, T/C [12] 39.1% | viability, T/C [13] 91.1% | viability, T/C [14] 78.1% | viability, T/C [15] 74.3% | viability, T/C [16] 57.5% | viability, T/C [17] 52.2% | viability, T/C [18] 36.4% | viability, T/C [19] 71.3% | viability, T/C [20] 65.2% | viability, T/C [21] 58.8% | viability, T/C [22] 49.4% | viability, T/C [23] 45.6% | viability, T/C [24] 34.4% | viability, T/C [25] 70.1% | viability, T/C [26] 59% | viability, T/C [27] 52.2% | viability, T/C [28] 45.7% | viability, T/C [29] 40.4% | viability, T/C [30] 33.1% | viability, T/C [31] 59.3% | viability, T/C [32] 54.4% | viability, T/C [33] 53% | viability, T/C [34] 45.9% | viability, T/C [35] 43.2% | viability, T/C [36] 34%

From PubChem BioAssay AID2060600 (Molecular Pharmacology Branch, DTP, NCI, 2025)
